For 2 compounds, Emax and EC50 results are on record in patent US6043279A, “Compounds having selective activity for retinoid X receptors, and means for modulation of processes mediated by retinoid X receptors” (priority 1997, dated 2000).

Common to all, as to format: cell-based
For one test, the target named is T1, RXRβ (Mus musculus, UniProt P28704).
T1 construct: expressed in transfected cells; host or cells: CV-1 (monkey kidney)
T1 sequence (P28704 1-520): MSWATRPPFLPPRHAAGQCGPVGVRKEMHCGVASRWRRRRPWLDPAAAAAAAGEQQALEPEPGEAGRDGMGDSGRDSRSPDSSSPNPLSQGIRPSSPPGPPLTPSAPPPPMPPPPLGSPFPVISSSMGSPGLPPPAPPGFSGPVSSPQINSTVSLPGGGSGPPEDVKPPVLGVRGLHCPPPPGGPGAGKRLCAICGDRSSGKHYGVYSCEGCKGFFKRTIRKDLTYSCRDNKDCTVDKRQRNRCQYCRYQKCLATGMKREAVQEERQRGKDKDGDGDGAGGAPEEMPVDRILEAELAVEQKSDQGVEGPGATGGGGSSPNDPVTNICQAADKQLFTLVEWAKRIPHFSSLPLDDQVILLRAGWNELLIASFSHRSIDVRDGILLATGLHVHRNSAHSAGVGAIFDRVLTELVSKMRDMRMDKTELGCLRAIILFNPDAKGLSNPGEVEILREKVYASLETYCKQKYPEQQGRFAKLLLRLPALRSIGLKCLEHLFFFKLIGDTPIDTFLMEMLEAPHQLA
Put plainly: co-transfection (cis-trans) assay in CV-1 cells, RXRβ. The settings on record: for Emax: CV-1, maximal response relative to all-trans-retinoic acid at 10^-5 M, read-out: Efficacy RXRβ; for EC50: CV-1 cells, luciferase reporter, concentration giving 50% of maximal observed response, read-out: Potency (nM) RXRβ. An excerpt: (§1) The co-transfection assay provides a mechanism to evaluate the ability of a compound to modulate the transcription response initiated by an intracellular receptor. […] Berger et al., J. Steroid Biochem. Molec.
(§2) Briefly, the co-transfection assay involves the introduction of two plasmids by transient transfection into a retinoid receptor-negative mammalian cell background. The first plasmid contains a retinoid receptor cDNA and directs constitutive expression of the encoded receptor. The second plasmid contains a cDNA that encodes for a readily quantifiable protein, e.g., firefly luciferase or chloramphenicol acetyl transferase (CAT), under control of a promoter containing a retinoid acid response element, which confers retinoid dependence on the transcription of the reporter. In this co-transfection assay, all retinoid receptors respond to all-trans-retinoic acid in a similar fashion. This assay can be used to accurately measure efficacy and potency of retinoic acid and synthetic retinoids as ligands that interact with the individual retinoid receptor subtypes.
(§3) Accordingly, synthetic retinoid compounds of the current invention were evaluated for their interaction with retinoid receptor subtypes using the co-transfection assay in which CV-1 cells were co-transfected with one of the retinoid receptor subtypes, a reporter construct, and an internal control to allow normalization of the response for transfection efficiency. The following example is illustrative.
(§4) Retinoids: All-trans-retinoic acid (RA) and 13-cis-retinoic acid (13-cis-RA) were obtained from Sigma. […] Retinoids were dissolved in dimethylsulfoxide for use in the transcriptional activation assays.
(§5) Co-transfection Assay In CV-1 Cells: A monkey kidney cell line, CV-1, was used in the cis-trans assay. Cells were transfected with two plasmids. […] The cis-vector contains an easily assayable gene product, in this case the firefly luciferase, coupled to a retinoid-responsive promoter, i.e., an RARE or RXRE. Addition of retinoic acid or an appropriate synthetic retinoid results in the formation of a retinoid-RAR or -RXR complex that activates the expression of luciferase gene, causing light to be emitted from cell extracts. The level of luciferase activity is directly proportional to the effectiveness of the retinoid-receptor complex in activating gene expression. This sensitive and reproducible co-transfection approach permits the identification of retinoids that interact with the different receptor isoforms.
Cells were cultured in DMEM supplemented with 10% charcoal resin-stripped fetal bovine serum, and experiments were conducted in 96-well plates. […] Cells were transfected for 6 h and then washed to remove the precipitate. The cells were then incubated for 36 h with or without retinoid. After the transfection, all subsequent steps were performed on a Beckman Biomek Automated Workstation. […] All determinations were performed in triplicate in two independent experiments and were normalized for transfection efficiency by using β-galactosidase as the internal control. […] Efficacy values less than 5% are not statistically different than the 0% background.

In another test the target is T2, RARα (Homo sapiens, UniProt P10276).
T2 construct: expressed in transfected cells; host or cells: CV-1 (monkey kidney)
T2 sequence (P10276 1-462): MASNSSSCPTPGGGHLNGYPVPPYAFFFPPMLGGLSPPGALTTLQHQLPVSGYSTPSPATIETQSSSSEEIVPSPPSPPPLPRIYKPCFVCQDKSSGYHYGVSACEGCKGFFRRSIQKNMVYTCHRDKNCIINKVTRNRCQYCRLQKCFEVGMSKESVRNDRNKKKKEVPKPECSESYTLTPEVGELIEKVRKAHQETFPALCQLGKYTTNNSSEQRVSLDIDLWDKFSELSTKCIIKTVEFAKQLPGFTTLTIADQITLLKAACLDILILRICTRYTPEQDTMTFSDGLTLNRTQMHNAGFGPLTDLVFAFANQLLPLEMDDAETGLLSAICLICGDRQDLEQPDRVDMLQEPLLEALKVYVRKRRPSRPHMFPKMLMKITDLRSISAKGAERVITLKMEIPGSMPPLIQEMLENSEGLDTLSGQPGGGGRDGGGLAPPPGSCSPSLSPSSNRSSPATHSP
Put plainly: co-transfection (cis-trans) assay in CV-1 cells, RARα. The settings on record: for Emax: CV-1, maximal response relative to all-trans-retinoic acid at 10^-5 M, read-out: Efficacy RARα; for EC50: CV-1 cells, luciferase reporter, concentration giving 50% of maximal observed response, read-out: Potency (nM) RARα.
Excerpt: as §1, §2, §3, §4, §5
(§6) Cells were cultured in DMEM supplemented with 10% charcoal resin-stripped fetal bovine serum, and experiments were conducted in 96-well plates. […] Cells were transfected for 6 h and then washed to remove the precipitate. The cells were then incubated for 36 h with or without retinoid. […]

Another test has as its target T3, RARβ (Homo sapiens, UniProt P10826).
T3 construct: expressed in transfected cells; host or cells: CV-1 (monkey kidney)
T3 sequence (P10826 1-448 isoform P10826-2): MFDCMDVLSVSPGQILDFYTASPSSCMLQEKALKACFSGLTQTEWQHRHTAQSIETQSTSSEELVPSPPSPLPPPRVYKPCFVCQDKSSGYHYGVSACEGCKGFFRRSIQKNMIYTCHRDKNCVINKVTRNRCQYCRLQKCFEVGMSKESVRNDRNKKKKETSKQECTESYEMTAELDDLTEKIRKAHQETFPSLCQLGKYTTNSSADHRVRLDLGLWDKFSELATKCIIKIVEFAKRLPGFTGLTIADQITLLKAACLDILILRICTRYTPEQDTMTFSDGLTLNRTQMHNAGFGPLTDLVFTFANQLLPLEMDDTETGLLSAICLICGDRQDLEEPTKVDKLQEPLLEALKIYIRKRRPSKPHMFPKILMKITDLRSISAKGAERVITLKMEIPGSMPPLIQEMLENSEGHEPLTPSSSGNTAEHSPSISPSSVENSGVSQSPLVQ
Description: co-transfection (cis-trans) assay in CV-1 cells, RARβ. As to conditions: for Emax: CV-1, maximal response relative to all-trans-retinoic acid at 10^-5 M, read-out: Efficacy RARβ; for EC50: CV-1 cells, luciferase reporter, concentration giving 50% of maximal observed response, read-out: Potency (nM) RARβ.
Excerpt: as §1, §2, §3, §4, §5, §6

For `Cc1cc(C(C)(C)C)ccc1C(=NO)c1ccc(C(=O)O)cc1` [Compound 137, 4-[(2-methyl-4-t-butylphenyl)carbonyl]benzoic acid oxime], the Emax on RXRβ was 57%; on RARα, less than 2%; at RARβ it was less than 2%. Further, the EC50 at RXRβ is 270 nM; at RARα it was greater than 10000 nM; at RARβ it was greater than 10000 nM.

For `C=C(c1ccc(C(=O)O)cc1)c1ccc(C(C)(C)C)cc1C` [Compound 133, 4-[1-(2-methyl-4-t-butylphenyl)ethenyl]benzoic acid], the Emax at RXRβ is 56%; at RARα, less than 2%; at RARβ, less than 2%. Besides, the EC50 is 470 nM on RXRβ, greater than 10000 nM on RARα and greater than 10000 nM at RARβ.
